Series [1] deals with obese mice induced by high-fat diet. In words: Intraperitoneal artemether, fatty liver in obese mice induced by high-fat diet (HE staining). As to conditions: intraperitoneal 20 mg/kg twice a week, eight weeks. In kind it is in vivo, Male C57BL/6J mice. As to the method: (§1) The mice were breeded in the SPF animal laboratory of the Laboratory Animal Center of Fudan University at a room temperature of 21° C.-23° C. with a 12-hour light/dark cycle. […] When the mice were grown to 8-week old, they were randomly divided into a control group and an administration group, with 8 mice in each group. While the mice were fed with a high-fat diet, artemether was injected intraperitoneally. Artemether for intraperitoneal injection was stored at 4° C. in coconut oil at a storage concentration of 6 mg/ml (20 mMol/L), and protected from light. Mice in administration group were injected with artemether at a dose of 20 mg/kg weight. Administration was twice a week for eight weeks. The mice were sacrificed by cervical dislocation, and liver tissues of mice were removed and fixed. The histological analysis for liver was commissioned by Shanghai Saige Biotech Co., Ltd., and the histological analysis process included tissue fixation, paraffin embedding, sectioning and HE staining.

For series [2], the system named is 3T3-L1 white preadipocytes. In words: Artemether-induced browning of 3T3-L1 white preadipocytes during differentiation (morphology, UCP1 mRNA by Real time qPCR). In kind it is cell-based. The settings on record: vs control, concentration-dependent tendency. The protocol: 2.5×10^5 3T3-L1 white preadipocytes were seeded in a 3.5 cm cell culture dish, and cultured for 3 days in a maintenance medium. Cells proliferated to contact inhibition. 48 hours after the contact inhibition was reached, the medium was changed to induced differentiation medium, and the induced differentiation mixture including 0.5 mMol/L 3-isobutyl-1-methylxanthine (Mix), 1 μMol/L dexamethasone (Dex) and 1 μg/ml insulin (Insulin) was added. The induced differentiation mixture is referred to as MDI for short. The day of adding MDI was defined as Day 0 of differentiation. After 2 days of culture in the above medium, fresh induced differentiation medium was replaced, and 1 μg/ml insulin was added to the medium. After another 2 days of culture, the fresh induced differentiation medium was replaced, and the medium was changed every other day until the culture was differentiated to Day 8. […]
3T3-L1 differentiated to mature was induced in a 3.5 cm culture dish, with the method of differentiation referring to Method 1.4.1. […] The precipitate was dissolved in 60 μl DEPC water, and quantified by Colibri Tepertec and stored at −80° C. […]
The relative amount of mRNA was calculated according to the AACT method, with 18S being used as an internal reference. […]

The test system of another series is high fat-fed mice. In words: Intraperitoneal artemether, adipose tissue in high fat-fed mice. Type of series: in vivo, Male C57BL/6J mice. The settings on record: high-fat diet, intraperitoneal 20 mg/kg twice a week, eight weeks. As to the method:
as §1, with “cervical dislocation” for “cervical dislocation,”, “and” for “and liver tissues of mice”, “were dissected, and inguinal fat (Inguinal, subcutaneous fat), epididymal fat (Gonadal, visceral fat) and brown fat in the interscapular region (BAT, classic brown fat) were removed, weighed” for “were removed”, “analysis of adipose tissue” for “analysis for liver”, “Ltd., which included” for “Ltd., and”, “the steps of fixing,” for “the histological analysis process included tissue fixation,”

Series [3] in a line: Intraperitoneal artemether, glucose metabolism in healthy lean mice. Type of series: in vivo, Male C57BL/6J mice. The settings on record: intraperitoneal 20 mg/kg twice a week, eight weeks. As to the method: The mice were breeded in the SPF animal laboratory of the Laboratory Animal Center of Fudan University at a room temperature of 21° C.-23° C. with a 12-hour light/dark cycle. When the mice were grown to 8-week old, they were randomly divided into a control group and an administration group, with 8 mice in each group. Artemether for intraperitoneal injection was stored at 4° C. in coconut oil at a storage concentration of 6 mg/ml (20 mMol/L), and protected from light. Mice in administration group were injected with artemether at a dose of 20 mg/kg weight, and mice in control group were injected with 100 μl coconut oil. Administration was twice a week for eight weeks.
The mice were fasted for 12-16 hours and injected intraperitoneally with glucose injection at a dose of […]. At 0 min, 30 min, 60 min, 90 min, and 120 min after injection, blood was collected from the tail vein, and blood glucose was measured with OneTouch ExtraEasy glucometer and OneTouch ExtraEasy blood glucose test strips and the results were recorded.
Insulin was injected intraperitoneally at a dose of 0.75 U/kg weight. At 0 min, 15 min, 30 min, 45 min and 60 min after injection, blood was collected from the tail vein, and blood glucose was measured.

Regarding `CO[C@H]1O[C@@H]2O[C@@]3(C)CC[C@H]4[C@H](C)CC[C@@H]([C@H]1C)[C@@]24OO3` [artemether], in series [1], the “morphology of the liver cells” value is “almost normal”. In addition, the “lipid in the liver (fatty liver)” value in series [1] (control: obvious lipid accumulation) is reported as “only a small amount of lipid”. In series [2] (3T3-L1, different concentrations of ART, Real time qPCR, 18S reference), the “mRNA level of UCP1” value was “significantly up-regulated”. Besides, the “cell morphology of 3T3-L1” value in series [2] (artemether 5, 10 or from Day 0 of differentiation to maturity) is on record as “exhibited typical brown adipocyte-like characteristics”. For the same molecule, in the series on high fat-fed mice, the “adipocyte size (sectioning and HE staining)” value is “significantly smaller than that of mice in control group”; the “volume of adipose tissue” value was “significantly smaller than that of mice in control group”; the “weight of adipose tissue” value is recorded as “significantly smaller than that of mice in control group”. Further, in series [3], the glucose tolerance curve result was “did not differ from that of mice in control group” and the insulin tolerance curve result is listed as “did not differ from that of mice in control group”.

Values taken from patent US20190133997A1, “ARTEMISININ ANALOG, AND USE, METHOD, AND COMPOSITION FOR PROMOTING LIPID CATABOLISM AND IMPROVING SUGAR METABOLISM” (FUDAN UNIVERSITY, priority 2016, published 2019).
